The values that follow come from US20250059172A1, “INDAZOLE COMPOUND AND PHARMACEUTICAL” (NIPPON SHINYAKU CO., LTD., priority 2021, published 2025).

Structures are written as SMILES. pIC50: −log10 of the molar value. Structures can show the parent of a compound that is named as a salt.

One test deals with human A549 cells. The test is described as follows: Inhibition test of PGE2 production using human A549 cells. Format: cell-based. Conditions: IL-1β stimulated A549 cells, 24 h, PGE2 by HTRF, read-out: A549 cell inhibition of PGE2 production IC50. In a few lines:
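PGE2 (HTRF) and PGF2a (EIA) were quantified in medium after 24 h, 37°C IL-1β stimulation (5 ng/well) of human A549 cells that had received test compound 60 min beforehand (0.1% DMSO, 3% FBS RPMI). IC50 relative to the window between IL-1β-stimulated and unstimulated controls.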
For orientation: In TR-FRET formats the signal depends on donor and acceptor labels being close together.

The next test addresses human mPGES-1 (Homo sapiens (Human), UniProt O14684). The test is described as follows: mPGES-1 inhibitory activity test. Format: biochemical. Conditions: for IC50: microsomes of CHO-K1 cells expressing human mPGES-1, PGH2 1 μM, PGE2 by HTRF, read-out: mPGES-1 inhibition (IC50 nM); for inhibition at 0.01 µM: 10 nM test compound. In a few lines: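 PGE2 formation was quantified by HTRF and reported as percent inhibition at 10 and 100 nM compound or as IC50. The 60-second reaction at 4° C used 1 μM PGH2, after a 20-minute 4° C preincubation of compound (1% DMSO final) with glutathione-supplemented (2.5 mM, pH 7.4) microsomes. The microsomes were from transiently transfected CHO-K1 cells expressing human mPGES-1.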

Chain of human mPGES-1 (O14684 whole entry): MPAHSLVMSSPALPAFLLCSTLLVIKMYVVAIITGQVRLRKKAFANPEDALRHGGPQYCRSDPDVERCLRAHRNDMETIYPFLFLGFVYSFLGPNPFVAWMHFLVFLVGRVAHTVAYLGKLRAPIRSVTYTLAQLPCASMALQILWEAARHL

On to `CC(C)(C)C(=O)NCc1ccc(Cl)c(C(=O)Nc2cccc3c2cnn3CC2CCCCO2)c1` (centres unmarked) [Example 105, 2-Chloro-5-{[(2,2-dimethylpropanoyl)amino]methyl}-N-[1-(tetrahydro-2H-pyran-2-ylmethyl)-1H-indazol-4-yl]benzamide], for which the negative-log IC50 (pIC50) in the test on human A549 cells is 7.95. Moreover, the half-maximal inhibitory concentration (IC50) on human mPGES-1 is 1.3 nM.
In the case of `CC(=O)N1CCC(n2ncc3c(NC(=O)c4cc(CNC(=O)C(C)(C)C)ccc4Cl)cccc32)CC1` [Example 106, N-[1-(1-acetylpiperidin-4-yl)-1H-indazol-4-yl]-2-chloro-5-{[(2,2-dimethylpropanoyl)amino]methyl}benzamide], the negative-log IC50 (pIC50) in the test with human A549 cells is 6.05. In addition, the IC50 at human mPGES-1 turned out to be 175 nM.
The matching figures for `CC(C)(C)C(=O)NCc1ccc(Cl)c(C(=O)Nc2cccc3c2cnn3CCN2CCOCC2)c1` [Example 107, 2-Chloro-5-{[(2,2-dimethylpropanoyl)amino]methyl}-N-{1-[2-(morpholin-4-yl)ethyl]-1H-indazol-4-yl}benzamide hydrochloride]: 6.40 and 10 nM.
For `CC(C)(C)C(=O)NCc1ccc(Cl)c(C(=O)Nc2cccc3c2cnn3CCCCc2ccccc2)c1` [Example 108, 2-Chloro-5-{[(2,2-dimethylpropanoyl)amino]methyl}-N-[1-(4-phenylbutyl)-1H-indazol-4-yl]benzamide], in that order: 7.69 and 11.1 nM.
For `O=C(Nc1cccc2c1cnn2Cc1ccccc1)c1cc(CNC(=O)C2CC2)ccc1Cl` [Example 109, N-(1-benzyl-1H-indazol-4-yl)-2-chloro-5-{[(cyclopropylcarbonyl)amino]methyl}benzamide], the negative-log IC50 (pIC50) in the test on human A549 cells was 6.92. Besides, the IC50 on human mPGES-1 was found to be 2.04 nM.
As for `Cn1ncc2c(NC(=O)c3cc(CNC(=O)C(C)(C)C)ccc3Cl)cccc21` [Example 111, 2-Chloro-5-{[(2,2-dimethylpropanoyl)amino]methyl}-N-(1-methyl-1H-indazol-4-yl)benzamide], the pIC50 with human A549 cells was 7.39. The IC50 at human mPGES-1 worked out at 5.5 nM.
The matching figures for `Cn1ncc2c(NC(=O)c3cc(CNC(=O)C4CC4)ccc3Cl)cccc21` [Example 112, 2-Chloro-5-{[(cyclopropylcarbonyl)amino]methyl}-N-(1-methyl-1H-indazol-4-yl)benzamide]: 7.04 and 12.9 nM.
For `CCn1ncc2c(NC(=O)c3cc(CNC(=O)C(C)(C)C)ccc3Cl)cccc21` [Example 113, 2-Chloro-5-{[(2,2-dimethylpropanoyl)amino]methyl}-N-(1-ethyl-1H-indazol-4-yl)benzamide], in that order: 7.69 and 1.2 nM.
As for `CC(C)(C)CC(=O)NCc1ccc(Cl)c(C(=O)Nc2cccc3c2cnn3-c2ccc(OC(F)(F)F)cc2)c1` [Example 114, 2-Chloro-5-{[(3,3-dimethylbutanoyl)amino]methyl}-N-{1-[4-(trifluoromethoxy)phenyl]-1H-indazol-4-yl}benzamide], the negative logarithm of the IC50 (pIC50) in the test with human A549 cells was 8.72. On human mPGES-1, this compound displayed an inhibition at 0.01 µM of 87%.
For `O=C(Nc1cccc2c1cnn2-c1ccc(OC(F)(F)F)cc1)c1cc(CNC(=O)C2CCCC2)ccc1Cl` [Example 115, 2-Chloro-5-{[(cyclopentylcarbonyl)amino]methyl}-N-{1-[4-(trifluoromethoxy)phenyl]-1H-indazol-4-yl}benzamide], the pIC50 in the test with human A549 cells was 8.92. At human mPGES-1, this compound registered an inhibition at 0.01 µM of 61%.
Turning to `O=C(Nc1cccc2c1cnn2-c1ccc(OC(F)(F)F)cc1)c1cc(CNC(=O)C2(C(F)(F)F)CC2)ccc1Cl` [Example 116, 2-Chloro-N-{1-[4-(trifluoromethoxy)phenyl]-1H-indazol-4-yl}-5-[({[1-(trifluoromethyl)cyclopropyl]carbonyl}amino)methyl]benzamide], the negative logarithm of the IC50 (pIC50) in the test with human A549 cells was 9.22. The compound also returned an inhibition at 0.01 µM on human mPGES-1 of 68%. For the same compound, at 0.1 µM the inhibition at human mPGES-1 (100 nM test compound) was 100%.

By pIC50 is commonly meant the IC50 on a negative log10 scale, so that one unit is a factor of ten. As usually defined, the IC50 is the concentration needed to halve the response being measured. Usually inhibition stands for the drop in the measured response relative to a control, in per cent. Low readings indicate a weak effect, high ones a strong effect.
